Each structure is given as a SMILES string. Numbered stars: 1 amine (or outer) side, 2 acyl side, 3 side chain; on linkers, the order of the positions; unused ones are H or OH. Square brackets hold non-standard residues; d marks the D form. Peptide text beside a SMILES is read from it. * marks the point of attachment. ξ: configuration not given here. ξAbu(4,4-F2)ψ(COCO) = O=C(C(=O)[*:2])C(CC(F)F)N[*:1]; Dip = N[C@H](C(=O)O)C(c1ccccc1)c1ccccc1; X6 = O=C(NS(=O)(=O)c1ccccc1)C(CC(F)F)N*; ξAla(CF3) = NC(CC(F)(F)F)C(=O)O; Cha = N[C@@H](CC1CCCCC1)C(=O)O; Ile(3ξ) = CCC(C)[C@H](N)C(=O)O; X3 = O=C(C(CC(F)F)N[*:1])[*:2]; Suc = O=C(CCC(=O)[*:2])[*:1]; X4 = COC(=O)C(=O)C(CC(F)F)N*; NHBn = c1ccc(CN*)cc1

For one assay, the target named is T1, HCV NS3 protease (Hepatitis C virus genotype 1b, UniProt P26663).
T1 construct: an NS3/4A complex comprising the NS3 protease domain
T1 sequence (P26663 1027-1208, other chains not shown): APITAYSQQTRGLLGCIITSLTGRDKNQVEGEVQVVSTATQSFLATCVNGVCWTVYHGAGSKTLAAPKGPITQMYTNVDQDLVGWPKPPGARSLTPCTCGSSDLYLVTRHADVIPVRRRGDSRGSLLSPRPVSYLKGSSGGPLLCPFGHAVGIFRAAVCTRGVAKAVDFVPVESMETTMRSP
Put plainly: Inhibition of NS3 protease (HPLC cleavage assay, NS3/4A complex with Pep4AK, substrate peptide 4AB). Format: biochemical. Particulars: IC50, Table 1 hexapeptides, cell printed without unit. The procedure:
Buffer solutions containing 80 μM Pep4AK were preincubated for 10 minutes with 10-200 nM protease and reactions were started by addition of substrate. Six duplicate data points at different substrate concentrations were used to calculate kinetic parameters. Incubation times were chosen in order to obtain <7% substrate conversion and reactions were stopped by addition of 40 μl 1% TFA. Cleavage of peptide substrates was determined by HPLC using a Merck-Hitachi chromatograph equipped with an autosampler. 80 μl samples were injected on a Lichrospher C18 reversed phase cartridge column (4×74 mm, 5 μm, Merck) and fragments were separated using a 10-40% acetonitrile gradient a 5%/min using a flow rate of 2.5 ml/min. Peak detection was accomplished by monitoring both the absorbance at 220 nm and tyrosine fluorescence (λex=260 nm, λem=305 nm). Cleavage products were quantitated by integration of chromatograms with respect to appropriate standards. Kinetic parameters were calculated from nonlinear least-squares fit of initial rates as a function of substrate concentration with the help of a Kaleidagraph software, assuming Michaelis-Menten kinetics.
Ki values of peptide inhibitors were calculated from substrate titration experiments performed in the presence of increasing amounts of inhibitor. Experimental data sets were simultaneously fitted to eq.1 using a multicurve fit macro with the help of a Sigmaplot software: V=(VmaxS)/(Km(1+[…])+S); (eq.1)
Alternatively, Ki values were derived from IC50 values, calculated using a four-parameter logistic function, according to eq.2: IC50−(1+S/Km)Ki (eq.2)
For `CSCC[C@H](NC(=O)[C@H](CCC(=O)O)NC(=O)[C@H](CC(=O)O)NC(C)=O)C(=O)N[C@@H](CCC(=O)O)C(=O)N[C@@H](CCC(=O)O)C(=O)NC(CC(F)F)C(=O)O` (stereo partly shown) [Compound 1a] (Ac-DEMEE[X3]-OH), the IC50 was determined as 3000 nM.

Staying with this assay, now noted: Table 1 hexapeptides, cells printed in nM; read-out: IC50.
`COC(=O)C(=O)C(CC(F)F)NC(=O)[C@H](CC1CCCCC1)NC(=O)[C@H](CCC(=O)O)NC(=O)[C@@H](NC(=O)[C@H](CCC(=O)O)NC(=O)[C@H](CC(=O)O)NC(C)=O)C(c1ccccc1)c1ccccc1` (stereo partly shown) [Compound 1f] (Ac-DE[Dip]E[Cha]-X4): the 50% inhibitory concentration (IC50) was 800 nM.
Still for that read-out and setting: as for `CC(=O)N[C@@H](CC(=O)O)C(=O)N[C@@H](CCC(=O)O)C(=O)N[C@H](C(=O)N[C@@H](CCC(=O)O)C(=O)N[C@@H](CC1CCCCC1)C(=O)NC(C=O)CC(F)F)C(c1ccccc1)c1ccccc1` (single isomer, unassigned) [Compound 1c (D)], the figure is 43 nM; as for `CCC(C)[C@H](NC(=O)[C@@H](NC(=O)[C@H](CCC(=O)O)NC(=O)CCC(=O)O)C(c1ccccc1)c1ccccc1)C(=O)N[C@@H](CC1CCCCC1)C(=O)NC(CC(F)F)C(=O)NS(=O)(=O)c1ccccc1` (stereo partly shown) [Compound 1o] (Suc-E[Dip][Ile(3ξ)][Cha]-X6), 800 nM; as for `CC(=O)N[C@@H](CC(=O)O)C(=O)N[C@@H](CCC(=O)O)C(=O)N[C@H](C(=O)N[C@@H](CCC(=O)O)C(=O)N[C@@H](CC1CCCCC1)C(=O)NC(CC(F)F)C(=O)C(=O)NCc1ccccc1)C(c1ccccc1)c1ccccc1` (stereo partly shown) [Compound 1e] (Ac-DE[Dip]E[Cha][ξAbu(4,4-F2)ψ(COCO)]-NHBn), 5 nM.
On the same count and under the same terms, as for `CC(=O)N[C@@H](CC(=O)O)C(=O)N[C@@H](CCC(=O)O)C(=O)N[C@H](C(=O)N[C@@H](CCC(=O)O)C(=O)N[C@@H](CC1CCCCC1)C(=O)NC(CC(F)(F)F)C(=O)O)C(c1ccccc1)c1ccccc1` (stereo partly shown) [Compound 1g] (Ac-DE[Dip]E[Cha][ξAla(CF3)]-OH), the figure is 100 nM.

Still in this assay, the particulars now being: Table 1 hexapeptides, cells printed in μM; read-out: IC50.
Regarding `CC(=O)N[C@@H](CC(=O)O)C(=O)N[C@@H](CCC(=O)O)C(=O)N[C@H](C(=O)N[C@@H](CCC(=O)O)C(=O)N[C@@H](CC1CCCCC1)C(=O)NC(CC(F)F)C(=O)O)C(c1ccccc1)c1ccccc1` (single isomer, unassigned) [Compound 1b (D)], the IC50 worked out at 1000 nM.

The same assay, now with this note: Table 2 tetrapeptides and tripeptides; read-out: IC50.
Consider `CC(C)C[C@H](NC(=O)[C@H](C)NC(=O)OC(C)(C)C)C(=O)NC(CC(F)F)C(=O)C(=O)O` (stereo partly shown) [Compound 5f], for which the IC50 is 8900 nM.
The same measure, in the same setting: the figure for `CC(C)C[C@H](NC(=O)[C@H](Cc1ccccc1)NC(=O)OC(C)(C)C)C(=O)NC(CC(F)F)C(=O)C(=O)O` (stereo partly shown) [Compound 5c] is 1500 nM.
`CC(C)C[C@H](NC(=O)[C@H](CC(=O)O)NC(=O)OC(C)(C)C)C(=O)NC(CC(F)F)C(=O)C(=O)O` (stereo partly shown) [Compound 5m]: the IC50 was 1600 nM.
On to `CCC(C)[C@H](NC(=O)NCc1ccccc1)C(=O)N[C@@H](CC(C)C)C(=O)NC(CC(F)F)C(=O)C(=O)O` (stereo partly shown) [Compound 4a], for which the IC50 was 6500 nM.
On the same count and under the same terms, the figure for `CC(C)C[C@H](NC(=O)[C@H](Cc1cccc(Br)c1)NC(=O)OC(C)(C)C)C(=O)NC(CC(F)F)C(=O)C(=O)O` (stereo partly shown) [Compound 5t] is 2500 nM; for `CCC(C)[C@H](NC(=O)OCc1ccccc1)C(=O)N[C@@H](C)C(=O)NC(CC(F)F)C(=O)C(=O)O` (stereo partly shown) [Compound 3g] it is 16000 nM.
Same read-out and setting: the figure for `CC(C)(C)OC(=O)N[C@@H](CCC(=O)O)C(=O)N[C@@H](CC(F)F)C(=O)NC(CC(F)F)C(=O)C(=O)O` (stereo partly shown) [Compound 5o] is 300 nM; for `CCCC[C@H](NC(=O)OC(C)(C)C)C(=O)N[C@@H](CC(C)C)C(=O)NC(CC(F)F)C(=O)C(=O)O` (stereo partly shown) [Compound 5g] it is 1200 nM.
Still for that read-out and setting: the figure for `CCC(C)[C@H](NC(=O)OCc1ccccc1)C(=O)N[C@@H](CCC(=O)O)C(=O)NC(CC(F)F)C(=O)C(=O)O` (stereo partly shown) [Compound 3d] is 9300 nM; for `CCC(C)[C@H](NC(=O)OCc1ccccc1)C(=O)N[C@H](C(=O)NC(CC(F)F)C(=O)C(=O)O)C(C)C` (stereo partly shown) [Compound 3a] it is 16000 nM.
Consider `CC(C)C[C@H](NC(=O)[C@H](CCC(=O)O)NC(=O)OC(C)(C)C)C(=O)NC(CC(F)F)C(=O)C(=O)O` (stereo partly shown) [Compound 5j], for which the IC50 turned out to be 330 nM.
Regarding `CC(=O)N[C@H](C(=O)N[C@@H](CCC(=O)O)C(=O)N[C@@H](CC1CCCCC1)C(=O)NC(CC(F)F)C(=O)C(=O)NCc1ccccc1)C(c1ccccc1)c1ccccc1` (stereo partly shown) [Compound 2b], the IC50 stood at 11400 nM.
Still for that read-out and setting: as for `CC(C)C[C@H](NC(=O)[C@H](CC(=O)OCc1ccccc1)NC(=O)OC(C)(C)C)C(=O)NC(CC(F)F)C(=O)C(=O)O` (stereo partly shown) [Compound 5l], the figure is 3500 nM; as for `CC(C)C[C@H](NC(=O)[C@@H](NC(=O)OC(C)(C)C)C1CCCC1)C(=O)NC(CC(F)F)C(=O)C(=O)O` (stereo partly shown) [Compound 5u], 400 nM.
Still for that read-out and setting: as for `CCC(C)[C@H](NC(=O)OCc1ccc(C(=O)O)cc1)C(=O)N[C@@H](CC(C)C)C(=O)NC(CC(F)F)C(=O)C(=O)O` (stereo partly shown) [Compound 4d], the figure is 440 nM; as for `CCC(C)[C@H](NC(=O)OCc1ccccc1)C(=O)N[C@@H](CC(C)C)C(=O)NC(CC(F)F)C(=O)C(=O)O` (stereo partly shown) [Compound 3c], 1400 nM.

The assay is the same for the next values; noted with them: Table 3 capped dipeptide keto acids; read-out: IC50.
As for `CC(C)C[C@H](NC(=O)c1ccccc1-c1ccccc1C(=O)O)C(=O)NC(CC(F)F)C(=O)C(=O)O` (single isomer, unassigned) [Compound 8g], the IC50 was determined as 4000 nM.
Still for that read-out and setting: as for `CC(C)C[C@H](NC(=O)C(Cc1ccccc1)c1ccccc1)C(=O)NC(CC(F)F)C(=O)C(=O)O` (mixture of isomers) [Compound 8j], the figure is 100000 nM; as for `CC(C)C[C@H](NC(=O)Cc1cccc(CC(=O)O)c1)C(=O)NC(CC(F)F)C(=O)C(=O)O` (mixture of isomers) [Compound 8c], 7000 nM.
Still for that read-out and setting: the figure for `CC(C)C[C@H](NC(=O)CCCC(=O)O)C(=O)NC(CC(F)F)C(=O)C(=O)O` (mixture of isomers) [Compound 7d] is 6000 nM; for `CC(C)C[C@H](NC(=O)CC1(CC(=O)NS(=O)(=O)c2ccccc2)CCCC1)C(=O)NC(CC(F)F)C(=O)C(=O)O` (mixture of isomers) [Compound 7n] it is 7000 nM; for `CCCCC(=O)N[C@@H](CC(C)C)C(=O)NC(CC(F)F)C(=O)C(=O)O` (single isomer, unassigned) [Compound 7b] it is 56000 nM.
Same read-out and setting: as for `CC(C)C[C@H](NC(=O)Cc1ccccc1CC(=O)O)C(=O)NC(CC(F)F)C(=O)C(=O)O` (single isomer, unassigned) [Compound 8b], the figure is 8000 nM.

Staying with this assay, now noted: Table 4 indoline keto acids and related; read-out: IC50.
Turning to `CC(C)C[C@H](NC(=O)C1Cc2ccc(OC3CCOC3)cc2N1)C(=O)NC(CC(F)F)C(=O)C(=O)O` (mixture of isomers) [Compound 10g], the concentration for half-maximal inhibition (IC50) stood at 23000 nM.
On the same count and under the same terms, the figure for `CC(C)CC1c2ccccc2NC1C(=O)N[C@@H](CC(C)C)C(=O)NC(CC(F)F)C(=O)C(=O)O` (single isomer, unassigned) [Compound 12] is 26000 nM.
On the same count and under the same terms, the figure for `COc1cccc(CC2(C(=O)N[C@@H](CC(C)C)C(=O)NC(CC(F)F)C(=O)C(=O)O)Cc3ccccc3N2)c1` (mixture of isomers) [Compound 9s] is 38000 nM; for `CC(C)C[C@H](NC(=O)C1(C(C)c2ccccc2)Cc2ccccc2N1)C(=O)NC(CC(F)F)C(=O)C(=O)O` (mixture of isomers) [Compound 9p] it is 88000 nM.
Still for that read-out and setting: as for `CC(C)C[C@H](NC(=O)C1(CC(C)C)Cc2ccccc2N1)C(=O)NC(CC(F)F)C(=O)C(=O)O` (mixture of isomers) [Compound 9d], the figure is 16000 nM; as for `CC(C)C[C@H](NC(=O)c1[nH]c2ccccc2c1OC(C(=O)O)c1cccc(Cl)c1)C(=O)NC(CC(F)F)C(=O)C(=O)O` (single isomer, unassigned) [Compound 14], 10000 nM; as for `CC(C)C[C@H](NC(=O)C1Cc2ccc(OCC3CCOC3)cc2N1)C(=O)NC(CC(F)F)C(=O)C(=O)O` (mixture of isomers) [Compound 10h], 16000 nM.
For the molecule `CC(C)CC(NC(=O)C1(Cc2cccc(C#N)c2)Cc2ccccc2N1)C(=O)NC(CC(F)F)C(=O)C(=O)O` (mixture of isomers) [Compound 9t], the IC50 turned out to be 9000 nM.
On to `CC(C)C[C@H](NC(=O)C1Cc2ccccc2N1)C(=O)NC(CC(F)F)C(=O)C(=O)O` (single isomer, unassigned) [Compound 9a], for which the IC50 amounted to 50000 nM.
Same read-out and setting: as for `CC(C)C[C@H](NC(=O)C1(Cc2ccccc2)Cc2ccccc2N1)C(=O)NC(CC(F)F)C(=O)C(=O)O` (mixture of isomers) [Compound 9o], the figure is 45000 nM.
On the same count and under the same terms, as for `CC(C)C[C@H](NC(=O)c1cc2ccccc2[nH]1)C(=O)NC(CC(F)F)C(=O)C(=O)O` (single isomer, unassigned) [Compound 13], the figure is 70000 nM; as for `CC(C)C[C@H](NC(=O)C1(CC(=O)O)Cc2ccccc2N1)C(=O)NC(CC(F)F)C(=O)C(=O)O` (mixture of isomers) [Compound 9n], 81000 nM.
The same measure, in the same setting: as for `CC(C)C[C@H](NC(=O)C1(CC(C)C)CCC(=O)N1)C(=O)NC(CC(F)F)C(=O)C(=O)O` (mixture of isomers) [Compound 11], the figure is 43000 nM.

As usually defined, the IC50 is the concentration at which inhibition is half-maximal.

(Values after US6867284B1, “Peptide inhibitors of hepatitis C virus NS3 protease” (Istituto di Ricerche di Biologia Molecolare P. Angeletti …, priority 1998, dated 2005).)
